pEC50, pIC50, pKd, pKi: −log10 of the molar value. A value given as a limit tells only on which side of the number the result lay.

The text below walks through data of ChEMBL document CHEMBL5579822, “Targeting cyclin-dependent kinases: From pocket specificity to drug selectivity” (Eur J Med Chem, 2024).

Assay [1] addresses CDK12/Cyclin K (Homo sapiens, UniProt Q9NYV4).
The target in assay [2] is T1, Cyclin-dependent kinase 2 (Homo sapiens, UniProt P24941).
Assay [3] has as its target T2, Cyclin-dependent kinase 9 (Homo sapiens, UniProt P50750).
For assay [4], the target named is Cyclin-dependent kinase 5 (Homo sapiens, UniProt Q00535).
The target in assay [5] is T3, Cyclin-dependent kinase 4 (Homo sapiens, UniProt P11802).
Assay [6] has as its target T4, Cyclin-dependent kinase 6 (Homo sapiens, UniProt Q00534).
For assay [7], the target named is T1, Cyclin-dependent kinase 2. The experiment in a line: Binding affinity to CDK2 (unknown origin) extracted from insect cells assessed as inhibition constant. It is filed as cell-free, Insect cell.
In assay [8] the target is T3, Cyclin-dependent kinase 4. Nature of the assay: Binding affinity to CDK4 (unknown origin) assessed as inhibition constant.
For assay [9], the target named is T4, Cyclin-dependent kinase 6. The experiment in a line: Binding affinity to CDK6 (unknown origin) assessed as inhibition constant.
Assay [10] concerns the target T2, Cyclin-dependent kinase 9. Nature of the assay: Binding affinity to CDK9 (unknown origin) assessed as inhibition constant.
For assay [11], the target named is Cyclin-dependent kinase 13 (Homo sapiens, UniProt Q14004).
The target in assay [12] is T2, Cyclin-dependent kinase 9. The source holds these as a separate data set.
Assay [13] addresses T3, Cyclin-dependent kinase 4. The source holds these as a separate data set.
Assay [14] has as its target T1, Cyclin-dependent kinase 2. This is another data set of the same source.
Assay [15] concerns the target T4, Cyclin-dependent kinase 6. The source holds these as a separate data set.
Assay [16] concerns the target Cyclin-dependent kinase 1 (Homo sapiens, UniProt P06493).
Assay [17] addresses Cyclin-dependent kinase 13/Cyclin-K (Homo sapiens, UniProt Q14004).
Assay [18] has as its target T5, Cyclin-dependent kinase 7 (Homo sapiens, UniProt P50613).
In assay [19] the target is T5, Cyclin-dependent kinase 7. Nature of the assay: biochemical.

T4 sequence (Q00534 whole entry): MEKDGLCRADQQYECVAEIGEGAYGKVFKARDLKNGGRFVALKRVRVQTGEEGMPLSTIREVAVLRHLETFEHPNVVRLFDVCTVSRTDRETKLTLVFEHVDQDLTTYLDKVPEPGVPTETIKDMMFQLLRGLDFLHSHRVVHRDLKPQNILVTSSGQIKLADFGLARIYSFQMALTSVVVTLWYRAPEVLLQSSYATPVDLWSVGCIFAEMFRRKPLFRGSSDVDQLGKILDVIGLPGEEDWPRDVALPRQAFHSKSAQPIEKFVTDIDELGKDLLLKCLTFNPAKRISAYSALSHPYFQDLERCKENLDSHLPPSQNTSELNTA
T3 sequence (P11802 whole entry): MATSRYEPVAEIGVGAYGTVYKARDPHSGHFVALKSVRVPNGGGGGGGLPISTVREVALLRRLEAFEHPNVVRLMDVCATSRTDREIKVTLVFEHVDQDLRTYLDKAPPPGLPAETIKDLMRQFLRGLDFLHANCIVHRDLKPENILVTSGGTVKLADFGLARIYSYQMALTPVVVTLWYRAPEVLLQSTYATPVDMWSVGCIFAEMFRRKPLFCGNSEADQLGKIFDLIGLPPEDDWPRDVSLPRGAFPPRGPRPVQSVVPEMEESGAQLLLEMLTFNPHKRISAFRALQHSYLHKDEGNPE
T2 sequence (P50750 whole entry): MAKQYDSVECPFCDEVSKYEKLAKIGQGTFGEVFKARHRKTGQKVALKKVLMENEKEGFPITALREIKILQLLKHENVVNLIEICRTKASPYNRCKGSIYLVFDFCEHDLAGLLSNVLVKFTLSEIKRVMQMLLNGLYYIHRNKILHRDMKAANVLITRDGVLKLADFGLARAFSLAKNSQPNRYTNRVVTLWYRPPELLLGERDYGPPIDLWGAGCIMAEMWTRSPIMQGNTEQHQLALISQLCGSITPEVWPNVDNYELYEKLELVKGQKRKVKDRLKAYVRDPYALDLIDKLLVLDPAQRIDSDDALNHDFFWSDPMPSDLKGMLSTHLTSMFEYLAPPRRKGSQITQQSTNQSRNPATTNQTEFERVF
T5 sequence (P50613 whole entry): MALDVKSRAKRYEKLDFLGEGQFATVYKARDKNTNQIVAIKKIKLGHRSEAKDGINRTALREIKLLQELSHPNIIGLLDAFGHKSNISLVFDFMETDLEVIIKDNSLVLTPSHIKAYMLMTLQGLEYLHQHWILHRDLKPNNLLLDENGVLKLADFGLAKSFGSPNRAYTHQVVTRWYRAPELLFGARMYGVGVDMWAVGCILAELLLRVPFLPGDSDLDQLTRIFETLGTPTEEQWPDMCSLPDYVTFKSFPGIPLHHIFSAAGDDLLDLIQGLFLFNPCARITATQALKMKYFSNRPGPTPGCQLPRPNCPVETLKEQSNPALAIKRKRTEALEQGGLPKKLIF
CDK12/Cyclin K, sequence (O75909 whole entry): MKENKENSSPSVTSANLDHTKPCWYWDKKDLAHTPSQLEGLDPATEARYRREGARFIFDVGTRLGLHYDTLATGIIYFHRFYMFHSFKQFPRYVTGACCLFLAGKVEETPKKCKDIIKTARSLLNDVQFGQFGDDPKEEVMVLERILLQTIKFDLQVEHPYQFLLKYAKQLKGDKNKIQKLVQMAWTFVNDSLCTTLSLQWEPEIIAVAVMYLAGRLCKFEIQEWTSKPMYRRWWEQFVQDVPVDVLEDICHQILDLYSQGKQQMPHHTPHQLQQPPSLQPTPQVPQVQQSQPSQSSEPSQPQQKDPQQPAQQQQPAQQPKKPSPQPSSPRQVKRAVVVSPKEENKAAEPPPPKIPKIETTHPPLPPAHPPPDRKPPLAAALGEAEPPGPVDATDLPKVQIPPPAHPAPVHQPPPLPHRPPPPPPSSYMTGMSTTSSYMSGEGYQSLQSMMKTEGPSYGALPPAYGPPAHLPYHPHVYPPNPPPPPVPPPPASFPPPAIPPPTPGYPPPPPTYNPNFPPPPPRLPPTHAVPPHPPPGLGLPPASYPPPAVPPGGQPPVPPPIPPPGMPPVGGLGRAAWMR
CDK12/Cyclin K, sequence (Q9NYV4 whole entry): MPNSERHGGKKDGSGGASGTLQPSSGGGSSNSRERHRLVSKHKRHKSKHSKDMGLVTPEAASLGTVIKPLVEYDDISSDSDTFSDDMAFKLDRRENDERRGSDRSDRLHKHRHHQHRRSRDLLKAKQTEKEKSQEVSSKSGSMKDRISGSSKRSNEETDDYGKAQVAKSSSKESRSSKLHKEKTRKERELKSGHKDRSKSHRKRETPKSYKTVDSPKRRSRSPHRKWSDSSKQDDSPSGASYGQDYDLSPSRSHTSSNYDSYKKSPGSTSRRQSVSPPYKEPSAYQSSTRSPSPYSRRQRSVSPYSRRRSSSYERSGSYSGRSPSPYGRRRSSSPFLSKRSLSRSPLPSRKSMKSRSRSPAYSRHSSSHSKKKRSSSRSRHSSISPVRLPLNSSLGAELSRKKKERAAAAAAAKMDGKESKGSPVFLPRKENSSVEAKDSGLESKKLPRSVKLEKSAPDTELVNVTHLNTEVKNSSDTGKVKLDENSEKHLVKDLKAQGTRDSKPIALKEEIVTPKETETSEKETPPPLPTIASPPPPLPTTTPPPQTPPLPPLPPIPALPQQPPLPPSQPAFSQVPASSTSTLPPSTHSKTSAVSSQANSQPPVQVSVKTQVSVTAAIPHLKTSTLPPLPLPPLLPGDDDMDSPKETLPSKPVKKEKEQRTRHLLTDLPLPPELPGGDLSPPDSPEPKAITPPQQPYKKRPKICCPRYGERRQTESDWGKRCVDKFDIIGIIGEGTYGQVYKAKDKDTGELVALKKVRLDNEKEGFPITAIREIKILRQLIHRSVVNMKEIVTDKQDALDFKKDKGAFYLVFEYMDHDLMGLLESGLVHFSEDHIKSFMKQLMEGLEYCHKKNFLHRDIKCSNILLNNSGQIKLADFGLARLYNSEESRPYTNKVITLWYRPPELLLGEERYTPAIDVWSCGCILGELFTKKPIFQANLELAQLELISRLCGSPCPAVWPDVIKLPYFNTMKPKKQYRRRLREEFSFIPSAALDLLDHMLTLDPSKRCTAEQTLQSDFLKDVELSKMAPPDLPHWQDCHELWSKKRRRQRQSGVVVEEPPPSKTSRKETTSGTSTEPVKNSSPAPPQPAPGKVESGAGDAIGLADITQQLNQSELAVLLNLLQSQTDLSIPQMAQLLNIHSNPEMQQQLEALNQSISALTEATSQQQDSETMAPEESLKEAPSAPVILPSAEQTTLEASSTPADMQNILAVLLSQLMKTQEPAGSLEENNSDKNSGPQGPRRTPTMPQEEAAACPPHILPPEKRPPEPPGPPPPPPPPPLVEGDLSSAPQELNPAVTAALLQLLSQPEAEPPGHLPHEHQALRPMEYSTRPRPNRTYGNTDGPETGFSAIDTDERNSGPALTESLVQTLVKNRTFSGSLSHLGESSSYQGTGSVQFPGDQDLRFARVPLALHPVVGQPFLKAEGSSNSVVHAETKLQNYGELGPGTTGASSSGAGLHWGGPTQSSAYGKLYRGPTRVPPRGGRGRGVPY
Cyclin-dependent kinase 5, sequence (Q00535 whole entry): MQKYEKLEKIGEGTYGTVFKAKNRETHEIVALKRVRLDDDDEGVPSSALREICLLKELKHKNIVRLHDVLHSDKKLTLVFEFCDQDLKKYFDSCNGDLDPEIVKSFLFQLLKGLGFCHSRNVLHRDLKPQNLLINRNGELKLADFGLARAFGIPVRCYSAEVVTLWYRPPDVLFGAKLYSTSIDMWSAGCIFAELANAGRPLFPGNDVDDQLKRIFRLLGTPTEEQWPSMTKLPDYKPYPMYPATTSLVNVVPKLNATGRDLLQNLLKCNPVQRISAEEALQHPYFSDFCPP
Cyclin-dependent kinase 1, sequence (P06493 whole entry): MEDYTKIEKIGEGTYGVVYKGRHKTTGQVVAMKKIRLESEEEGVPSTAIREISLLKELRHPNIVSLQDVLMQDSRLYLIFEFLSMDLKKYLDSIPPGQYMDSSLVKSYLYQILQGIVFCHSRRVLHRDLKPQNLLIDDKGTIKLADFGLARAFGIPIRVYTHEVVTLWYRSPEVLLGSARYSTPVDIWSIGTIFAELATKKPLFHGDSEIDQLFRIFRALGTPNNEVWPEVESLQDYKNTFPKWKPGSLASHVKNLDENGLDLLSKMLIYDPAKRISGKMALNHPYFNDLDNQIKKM

The pEC50 is −log10 of the EC50, conventionally taken in molar units. A lower pEC50 goes with a high EC50. In turn, `CC(C)n1cnc2c(NCc3nc4cc(Cl)c(Cl)cc4[nH]3)nc(N3CCOCC3)nc21` showed a pEC50 in [1] of 8.05.

In general, pIC50 refers to the IC50 on a negative log10 scale, so that one unit is a factor of ten. The low end stands for a large IC50, the high end for a small IC50. `N[C@H]1CCN(c2c3c(nc4ccc(-c5ccncc5)cc24)CCCC3)C1`: the values for the pIC50 in assay [2] and in assay [3] were less than 6.30 and 8.10, respectively.

Consider `CC(C)c1cnn2c(NCc3ccccc3)cc(NC[C@H]3CCNC[C@@H]3O)nc12` [CT-7001], for which the pIC50 in assay [4], in assay [5] and in assay [6] was less than 5.03 in each case.

As usually defined, the pKi is the negative decadic logarithm of the Ki, by convention in mol/L. For `CC(=O)c1c(C)c2cnc(NC3CCN(S(C)(=O)=O)CC3)nc2n(C2CCCC2)c1=O`, the pKi in assay [7] was 8.23; in assay [8], 9.70; in [9], 9.70; in [10], 8.02.

Compound `CC(C)c1nn(-c2c(Cl)cccc2Cl)c2nc(Cc3ccc(OCCO)cc3)[nH]c(=O)c12` gave a pEC50 in assay [1] of 7.92.

On to `CN(C)C/C=C/C(=O)Nc1ccc(C(=O)Nc2cccc(Nc3ncc(Cl)c(-c4c[nH]c5ccccc45)n3)c2)cc1`, for which the pIC50 in [11] was 6.21.

`N[C@H]1CCN(c2c3c(nc4ccc(-c5ccnc(NC(=O)C6CC6)c5)cc24)CCCC3)C1`: the pIC50 in [3] was 8.70.

For orientation: pKd means −log10 of the Kd, conventionally taken in molar units. A high value points to a small Kd. As to `Cn1cc(-n2cnc3c(NCc4nc5cc(Cl)c(Cl)cc5[nH]4)nc(N4CCOCC4)nc32)cn1`, the pKd in assay [12] and in assay [15] was less than 5.00 each time. Also, the pIC50 is less than 5.00 in assay [13], less than 5.00 in [14] and greater than 5.00 in [16].

Compound `CN(C)C/C=C/C(=O)Nc1ccc(C(=O)N2CCC[C@@H](Nc3ncc(Cl)c(-c4c[nH]c5ccccc45)n3)C2)cc1` had a pIC50 in assay [17] of 6.16.

In assay [18], `CN(C)C/C=C/C(=O)Nc1ccc(C(=O)N[C@@]2(C)CCC[C@@H](Nc3ncc(Cl)c(-c4c[nH]c5ccccc45)n3)C2)nc1` gave a pIC50 of 7.10.

In assay [19], `Clc1cnc(N[C@H]2CCCNC2)nc1-c1c[nH]c2ccccc12` had a pIC50 of 9.48.
